Calls of active or inactive are those of the source. The calls are words filed in the database; no cut-off is given here.
What was measured:
HepG2 [1] = experiment: Inhibition of glucose production in human HepG2 cells at 10 uM incubated for 4 hrs by colorimetric glucose assay; type: functional, cell-based
[2] = target: Trace amine-associated receptor 1 (Mus musculus, UniProt Q923Y8); experiment: Agonist activity at mouse TAAR1 expressed in HEK293T cells assessed as induction of cAMP production by BRET assay; type: functional, cell-based
Sequence of Trace amine-associated receptor 1 (Q923Y8 whole entry): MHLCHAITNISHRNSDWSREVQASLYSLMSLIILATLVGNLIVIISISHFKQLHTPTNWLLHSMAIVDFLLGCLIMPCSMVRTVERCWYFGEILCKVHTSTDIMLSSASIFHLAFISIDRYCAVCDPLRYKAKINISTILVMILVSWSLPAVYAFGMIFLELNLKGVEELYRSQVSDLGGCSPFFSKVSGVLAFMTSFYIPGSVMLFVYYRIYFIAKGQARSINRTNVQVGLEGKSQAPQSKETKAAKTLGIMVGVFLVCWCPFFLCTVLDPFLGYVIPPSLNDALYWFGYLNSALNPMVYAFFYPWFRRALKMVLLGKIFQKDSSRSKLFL

[3] = target: Trace amine-associated receptor 1 (Mus musculus) (UniProt Q923Y8); experiment: Agonist activity at mouse TAAR1 expressed in HEK293T cells assessed as induction of cAMP production by BRET assay relative to control; type: functional, cell-based; conditions: filed as agonist
Sequence of Trace amine-associated receptor 1 (Mus musculus) (Q923Y8 whole entry): as above

HepG2 [4] = experiment: Increase in glucose production in human HepG2 cells at 0.1 to 1 uM incubated for 4 hrs by colorimetric glucose assay; type: functional, cell-based; conditions: dose 0.1-1 µM
Mus musculus = experiment: Increase in plasma glycaemia in CD1 mouse at 4.0 ug/kg, ip measured after 15 mins; type: functional, organism-based
HepG2 [5] = experiment: Increase in glucose production in human HepG2 cells at incubated for 4 hrs by colorimetric glucose assay; type: functional, cell-based
HepG2 [6] = experiment: Hyperglycemic activity in human HepG2 cells incubated for 4 hrs by colorimetric glucose assay; type: functional, cell-based; conditions: HepG2, 4 h

SMILES: Cc1cc(CCN)ccc1Cc1ccc(O)cc1
- inhibition (HepG2 [1]): Active
- EC50 [2]: 0.098 µM
- Efficacy [3]: 100%
- Activity (HepG2 [4]): Active
- Activity (Mus musculus): Active

SMILES: CCN(C(C)=O)c1ccc(Cc2ccc(CCN)cc2C)cc1C(C)C
- EC50 [2]: 0.44 µM
- Efficacy [3]: 100%

SMILES: Cc1cc(CCN)cc(C)c1Cc1ccc(N)cc1
- EC50 [2]: 0.158 µM
- Efficacy [3]: 100%

SMILES: CC(=O)Nc1ccc(Cc2ccc(OCCN)cc2)cc1
- EC50 [2]: > 10 µM

SMILES: CC(=O)Nc1ccc(Cc2ccc(OCCNC(=N)NC(=N)N)cc2C)cc1
- EC50 [2]: > 10 µM

SMILES: CC(=O)Nc1ccc(Cc2ccc(OCCN)cc2C)cc1
- EC50 [2]: > 10 µM

SMILES: Cc1cc(OCCN)cc(C)c1Cc1ccc(N)cc1
- EC50 [2]: 0.134 µM
- Efficacy [3]: 100%

SMILES: Cc1cc(CCN)ccc1Cc1ccc(N)cc1
- EC50 [2]: 0.119 µM
- Efficacy [3]: 100%
- Activity (HepG2 [5]): Dose-dependent effect
- Activity (Mus musculus): Active

SMILES: NCCc1ccc(Oc2ccc(O)cc2)c(I)c1
- EC50 (HepG2 [6]): 0.84 µM

SMILES: Cc1cc(CCN)cc(C)c1-c1ccc(N)cc1
- EC50 [2]: 0.633 µM
- Efficacy [3]: 100%

SMILES: CC(=O)NCCOc1ccc(Cc2ccc(NC(C)=O)cc2)c(C)c1
- EC50 [2]: > 10 µM

SMILES: CC(=O)NCCOc1ccc(Cc2ccc(NC(C)=O)cc2)cc1
- EC50 [2]: > 10 µM

SMILES: Cc1cc(CCN)ccc1-c1ccc(N)cc1
- EC50 [2]: 1.18 µM
- Efficacy [3]: 100%

SMILES: CCNc1ccc(Cc2ccc(CCN)cc2C)cc1C(C)C
- EC50 [2]: 0.102 µM
- Efficacy [3]: 100%

SMILES: CC(=O)Nc1ccc(Cc2ccc(CCN)cc2C)cc1
- EC50 [2]: 3.1 µM
- Efficacy [3]: 100%

SMILES: Cc1cc(OCCNC(=N)NC(=N)N)ccc1Cc1ccc(N)cc1
- EC50 [2]: > 10 µM

SMILES: CCN(C(C)=O)c1ccc(Cc2ccc(CCNC(C)=O)cc2C)cc1C(C)C
- EC50 [2]: > 10 µM
- Efficacy [3]: 100%
